Measurements: US20140315889A1, “HYDROXAMATE DERIVATIVES FOR HDAC INHIBITOR, AND THE PHARMACEUTICAL COMPOSITION COMPRISING THEREOF” (CHONG KUN DANG PHARMACEUTICAL CORP., priority 2011, published 2014)

Columns and labels:
Human recombinant HDAC1 = target: T1, Human recombinant HDAC1 (Homo sapiens, UniProt Q13547); test: HDAC enzyme activity test, HDAC1; format: biochemical; settings: Table 12; read-out: Inhibition ability (IC50) HDAC1
T1 construct: purchased Enzo Life Science Co. (named for the kit; assigned to the enzyme from the BML- catalogue prefix) BML-SE456
Protocol: (§1) Then, 0.3 μg of enzyme and 10 μM of substrate per well were added, reacted at 30° C. for 60 minutes. Thereto, Fluor de Lys® Developer II (BML-KI176) was added and reacted for 30 minutes. […] From the data, the respective IC50 were calculated by GraphPad Prism 4.0 program.

human recombinant HDAC6 = target: T2, human recombinant HDAC6 (Homo sapiens, UniProt Q9UBN7); test: HDAC enzyme activity test, HDAC6; format: biochemical; settings: for Selectivity for HDAC6, HD1/HD6 / IC50: Table 12; for Selectivity for HDAC6, HD1/HD6: ratio HDAC1 IC50 / HDAC6 IC50; for IC50: read-out: Inhibition ability (IC50) HDAC6
T2 construct: purchased Calibiochem Co. (so in the source) 382180
T2 sequence (Q9UBN7 1-1215): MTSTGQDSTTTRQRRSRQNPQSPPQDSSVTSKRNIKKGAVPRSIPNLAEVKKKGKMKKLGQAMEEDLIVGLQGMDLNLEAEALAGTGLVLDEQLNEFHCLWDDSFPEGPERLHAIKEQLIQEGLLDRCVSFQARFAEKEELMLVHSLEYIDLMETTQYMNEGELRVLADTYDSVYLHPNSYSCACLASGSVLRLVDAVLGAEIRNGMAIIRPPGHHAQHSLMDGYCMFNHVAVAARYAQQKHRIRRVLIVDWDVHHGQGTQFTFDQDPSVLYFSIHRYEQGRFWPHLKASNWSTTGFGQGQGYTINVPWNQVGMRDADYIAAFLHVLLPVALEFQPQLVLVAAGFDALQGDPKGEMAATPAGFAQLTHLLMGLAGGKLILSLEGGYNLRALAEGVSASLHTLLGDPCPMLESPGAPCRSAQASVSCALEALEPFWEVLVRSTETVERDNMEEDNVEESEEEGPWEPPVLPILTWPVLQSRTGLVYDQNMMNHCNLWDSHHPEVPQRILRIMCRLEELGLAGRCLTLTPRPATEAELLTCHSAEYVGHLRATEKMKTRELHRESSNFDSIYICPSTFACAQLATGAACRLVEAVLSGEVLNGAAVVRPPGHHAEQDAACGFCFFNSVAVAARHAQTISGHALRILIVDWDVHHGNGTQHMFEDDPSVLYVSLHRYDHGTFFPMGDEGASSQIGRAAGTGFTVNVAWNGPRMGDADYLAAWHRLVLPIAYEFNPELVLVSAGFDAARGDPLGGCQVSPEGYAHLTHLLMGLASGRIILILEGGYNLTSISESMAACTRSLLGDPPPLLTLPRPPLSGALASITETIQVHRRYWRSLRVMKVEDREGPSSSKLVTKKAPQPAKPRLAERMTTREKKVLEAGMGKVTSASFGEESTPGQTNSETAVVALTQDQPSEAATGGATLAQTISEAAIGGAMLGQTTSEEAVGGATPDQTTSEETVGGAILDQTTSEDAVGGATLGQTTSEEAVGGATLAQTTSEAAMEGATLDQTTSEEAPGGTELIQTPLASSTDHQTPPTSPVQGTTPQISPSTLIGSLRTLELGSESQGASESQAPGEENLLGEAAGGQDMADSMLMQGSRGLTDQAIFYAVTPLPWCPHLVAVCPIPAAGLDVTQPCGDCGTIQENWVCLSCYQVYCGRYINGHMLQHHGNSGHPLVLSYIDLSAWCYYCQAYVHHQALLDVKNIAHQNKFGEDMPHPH
Protocol: as §1

T1 sequence (Q13547 whole entry): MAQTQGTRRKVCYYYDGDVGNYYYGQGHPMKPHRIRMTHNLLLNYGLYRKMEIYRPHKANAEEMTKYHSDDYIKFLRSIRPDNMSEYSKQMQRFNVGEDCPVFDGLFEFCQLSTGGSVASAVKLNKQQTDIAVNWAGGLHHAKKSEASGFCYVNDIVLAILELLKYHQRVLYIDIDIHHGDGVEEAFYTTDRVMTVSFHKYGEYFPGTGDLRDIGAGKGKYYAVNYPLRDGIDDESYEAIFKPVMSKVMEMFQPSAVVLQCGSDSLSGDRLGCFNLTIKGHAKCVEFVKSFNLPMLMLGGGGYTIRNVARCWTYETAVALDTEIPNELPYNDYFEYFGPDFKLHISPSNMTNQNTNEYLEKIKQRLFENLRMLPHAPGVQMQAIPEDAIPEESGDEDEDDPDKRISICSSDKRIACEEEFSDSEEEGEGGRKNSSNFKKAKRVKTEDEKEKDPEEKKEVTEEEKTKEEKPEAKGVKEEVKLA

Structure (SMILES)	IC50 (Human recombinant HDAC1)	Selectivity for HDAC6, HD1/HD6 (human recombinant HDAC6)	IC50 (human recombinant HDAC6)	selectivity for HDAC6 over HDAC1 (human recombinant HDAC6; from the data of Table 12)
CC1(C)CC(=O)c2c(n(CCCCCCC(=O)NO)c3ccc(F)cc23)C1 [Compound 56, 7-(6-fluoro-2,2-dimethyl-4-oxo-1,2,3,4-tetrahydrocarbazol-9-yl)-N-hydroxyheptanamide]	242 nM	58.5	4.13 nM	–
Cc1cn(Cc2ccc(C(=O)NO)cc2)c2c1C(=O)NCC2 [Compound 232, N-hydroxy-4-((3-methyl-4-oxo-4,5,6,7-tetrahydropyrrolo[3,2-c]pyridin-1-yl)methyl)benzamide]	4840 nM	107.4	45 nM	–
O=C(NO)c1ccc(Cn2c3c(c4ccccc42)C(=O)C(CN2CCN(C(=O)C4CC4)CC2)CC3)cc1 (stereo not shown) [Compound 156, 4-((3-((4-(cyclopropancarbonyl)piperazin-1-yl)methyl)-4-oxo-1,2,3,4-tetrahydrocarbazol-9-yl)methyl)-N-hydroxybenzamide]	6400 nM	424.8	15.1 nM	–
CCN1CCN(CC2CCc3c(c4cc(F)ccc4n3Cc3ccc(C(=O)NO)cc3)C2=O)CC1 (stereo not shown) [Compound 189, 4-((3-((4-ethylpiperazin-1-yl)methyl)-6-fluoro-4-oxo-1,2,3,4-tetrahydrocarbazol-9-yl)methyl)-N-hydroxybenzamide]	2230 nM	193.5	11.5 nM	–
CC1CN(CC2CCc3c(c4ccccc4n3Cc3ccc(C(=O)NO)cc3)C2=O)CC(C)O1 (stereo not shown) [Compound 110, 4-((3-((2,6-dimethylmorpholino)methyl)-4-oxo-1,2,3,4-tetrahydrocarbazol-9-yl)methyl)-N-hydroxybenzamide]	896 nM	80	11.2 nM	–
CC1(C)CC(=O)c2c(n(CCCCCCC(=O)NO)c3c(Br)cccc23)C1 [Compound 52, 7-(1-bromo-7,7-dimethyl-5-oxo-5,6,7,8-tetrahydrocarbazol-9-yl)-N-hydroxyheptanamide]	662 nM	27.7	23.9 nM	–
CC1(C)CC(=O)c2c(n(CCCCCC(=O)NO)c3ccc(F)c(F)c23)C1 [Compound 74, 6-(5,6-difluoro-2,2-dimethyl-4-oxo-1,2,3,4-tetrahydrocarbazol-9-yl)-N-hydroxyhexanamide]	4720 nM	33.3	141 nM	–
O=C(CCCCCn1c2c(c3ccccc31)C(=O)C(CN1CCOCC1)CC2)NO (stereo not shown) [Compound 193, N-hydroxy-6-(3-(morpholinomethyl)-4-oxo-1,2,3,4-tetrahydrocarbazol-9-yl)hexanamide]	3500 nM	464.3	7.5 nM	–
CC(C)(C)OC(=O)N1CCN(CC2CCc3c(c4cc(F)ccc4n3Cc3ccc(C(=O)NO)cc3)C2=O)CC1 (stereo not shown) [Compound 144, tert-butyl 4-((6-fluoro-9-(4-(hydroxycarbamoyl)benzyl)-4-oxo-2,3,4,9-tetrahydro-1H-carbazol-3-yl)methyl)piperazin-1-carboxylate]	8410 nM	310.9	27.1 nM	–
CCCCN1CCN(CC2CCc3c(c4cc(F)ccc4n3Cc3ccc(C(=O)NO)cc3)C2=O)CC1 (stereo not shown) [Compound 190, 4-((3-((4-butylpiperazin-1-yl)methyl)-6-fluoro-4-oxo-1,2,3,4-tetrahydrocarbazol-9-yl)methyl)-N-hydroxybenzamide]	2250 nM	385.1	5.8 nM	–
CC1(C)CC(=O)c2c(n(Cc3ccc(C(=O)NO)cc3)c3ccc(Br)cc23)C1 [Compound 45, 4-((6-bromo-2,2-dimethyl-4-oxo-1,2,3,4-tetrahydrocarbazol-9-yl)methyl)-N-hydroxybenzamide]	5480 nM	42.1	130 nM	–
CC1(C)Cc2c(c3ccccc3n2Cc2ccc(C(=O)NO)cc2)C(=O)C1CN1CCOCC1 (stereo not shown) [Compound 122, 4-((2,2-dimethyl-3-(morpholinomethyl)-4-oxo-1,2,3,4-tetrahydrocarbazol-9-yl)methyl)-N-hydroxybenzamide]	6270 nM	153	41 nM	–
Cc1c2c(n(CCCCCCC(=O)NO)c1C)CCCC2=O [Compound 328, 7-(2,3-dimethyl-4-oxo-4,5,6,7-tetrahydro-1H-indol-1-yl)-N-hydroxyheptanamide]	3210 nM	145.1	22.1 nM	–
O=C(NO)c1ccc(Cn2c3c(c4ccccc42)C(=O)C(CN2CCC(F)(F)C2)CC3)cc1 (stereo not shown) [Compound 123, 4-((3-((3,3-difluoropyrrolidin-1-yl)methyl)-4-oxo-1,2,3,4-tetrahydrocarbazol-9-yl)methyl)-N-hydroxybenzamide]	3570 nM	539.8	6.61 nM	–
Cc1cc2c(n1CCCCCC(=O)NO)CC(C)(C)CC2=O [Compound 345, N-hydroxy-6-(2,6,6-trimethyl-4-oxo-4,5,6,7-tetrahydroindol-1-yl)hexanamide]	402 nM	14.3	28.1 nM	–
CC1(C)CC(=O)c2c(n(Cc3ccc(C(=O)NO)cc3)c3ccc(F)cc23)C1 [Compound 57, 4-((6-fluoro-2,2-dimethyl-4-oxo-1,2,3,4-tetrahydrocarbazol-9-yl)methyl)-N-hydroxybenzamide]	3770 nM	168.3	22.4 nM	–
Cc1nccn1CC1C(=O)c2c(n(Cc3ccc(C(=O)NO)cc3)c3ccccc23)CC1(C)C (stereo not shown) [Compound 126, 4-((2,2-dimethyl-3-((2-methyl-1H-imidazol-1-yl)methyl)-4-oxo-1,2,3,4-tetrahydrocarbazol-9-yl)methyl)-N-hydroxybenzamide]	5800 nM	163.3	35.5 nM	–
CC1(C)CC(=O)c2c(n(CCCCCC(=O)NO)c3ccccc23)C1 [Compound 18, 6-(2,2-dimethyl-4-oxo-1,2,3,4-tetrahydrocarbazol-9-yl)-N-hydroxyhexanamide]	1320 nM	18.5	71.4 nM	–
O=C(NO)c1ccc(Cn2c3c(c4cc(F)ccc42)C(=O)N(CCN2CCC[C@H]2CO)CC3)cc1 [Compound 290, (S)-4-((8-fluoro-2-(2-(2-(hydroxymethyl)pyrrolidin-1-yl)ethyl)-1-oxo-1,2,3,4-tetrahydropyrido[4,3-b]indol-5-yl)methyl)-N-hydroxybenzamide]	6410 nM	2925.1	2.19 nM	more than 2,900 times
CC1(C)CC(=O)c2c(n(CCCCCC(=O)NO)c3c(Br)cccc23)C1 [Compound 46, 6-(1-bromo-7,7-dimethyl-5-oxo-5,6,7,8-tetrahydrocarbazol-9-yl)-N-hydroxyhexanamide]	2070 nM	8.2	253 nM	–
Cc1c2c(n(Cc3ccc(C(=O)NO)cc3)c1C)CCC(CN1CCOCC1)C2=O (stereo not shown) [Compound 268, 4-((2,3-dimethyl-5-(morpholinomethyl)-4-oxo-4,5,6,7-tetrahydroindol-1-yl)methyl)-N-hydroxybenzamide]	6050 nM	448.4	13.5 nM	–
